Laboratory results from ChEMBL document CHEMBL5608204, “Disulfide bond replacement with non-reducible side chain to tail macrolactamization for the development of potent and selective CXCR4 peptide antagonists endowed with flanking binding sites” (Eur J Med Chem, 2024).
Each block holds one molecule with its values, some of them ahead of it. Active and inactive are the calls of the source. No cut-off for these calls is given here.

How the values were obtained:
[1] = molecular target: T1, C-X-C chemokine receptor type 4 (Homo sapiens, UniProt P61073); experiment: Antagonist activity at CXCR4 in human CCRF-CEM cells assessed as inhibition of anti-CXCR4 binding preincubated with compound for 45 mins followed by anti-CXCR4 PE antibody addition and measured after 30 mins by fluorescence based competitive binding assay; type: functional, cell-based
[2] = molecular target: T1, C-X-C chemokine receptor type 4; experiment: Antagonist activity at CXCR4 in human CEM cells assessed as inhibition of CXCL12-induced CXCR4 internalization at 0.1 to 1 uM preincubated for 45 mins followed by CXCL12 stimulation and measured after 30 mins by flow cytometry analysis; type: functional, cell-based; details: filed as antagonist, dose 0.1-1 µM, time 75.0 min
[3] = molecular target: T1, C-X-C chemokine receptor type 4; experiment: Agonist activity at CXCR4 (unknown origin) transfected with CHO cells cotransfected with CXCR4-GFP assessed as induction of CXCR4 internalization at 0.1 to 1 uM incubated for 45 mins by DAPI staining based microscopy analysis; type: functional, cell-based; details: dose 0.1-1 µM
[4] = molecular target: T1, C-X-C chemokine receptor type 4; experiment: Agonist activity at CXCR4 in human CEM cells assessed as induction of CXCR4 internalization at 0.1 to 1 uM incubated for 45 mins by flow cytometry analysis; type: functional, cell-based; details: dose 0.1-1 µM
CCRF-CEM [5] = experiment: Inhibition of CXCL12-induced cell migration in human CCRF-CEM cells at 0.01 to 10 uM measured after 6 hrs by DAPI staining based analysis; type: functional; details: dose 0.01-10 µM
[6] = molecular target: T2, Atypical chemokine receptor 3 (Homo sapiens, UniProt P25106); experiment: Binding affinity to CXCR7 (unknown origin) overexpressing human MCF7 cells at upto 10 uM by flow cytometry analysis; type: cell-based
CCRF-CEM [7] = experiment: Inhibition of CXCL12-induced cell migration in human CCRF-CEM cells measured after 6 hrs by DAPI staining based analysis; type: functional; details: dose 0.01-10 µM
[8] = molecular target: T1, C-X-C chemokine receptor type 4; experiment: Displacement of 125I-CXCL12 from CXCR4 in human CCRF-CEM cells measured after 1 hr by competitive binding assay; type: cell-based
[9] = molecular target: T1, C-X-C chemokine receptor type 4; experiment: Antagonist activity at CXCR4 (unknown origin) transfected with CHO cells cotransfected with CXCR4-GFP assessed as inhibition of CXCL12 induced CXCR4 internalization at upto 1 uM preincubated for 45 mins followed by CXCL12 stimulation and measured after 30 to 90 mins by DAPI staining based microscopy analysis; type: functional, cell-based; details: time 75-135 min
[10] = molecular target: T2, Atypical chemokine receptor 3; experiment: Inhibition of CXCR7 (unknown origin) overexpressing human MCF7 cells at upto 10 uM by flow cytometry analysis relative to control; type: cell-based
[11] = molecular target: T2, Atypical chemokine receptor 3; experiment: Binding affinity to CXCR7 (unknown origin) overexpressing human MCF7 cells by flow cytometry analysis; type: cell-based
[12] = Stability of the compound assessed as parent compound remaining in PBS buffer at pH 7.4 at 10 uM measured upto 8 hr in presence of glutathione by RP-HPLC analysis; type: physicochemical; details: pH 7.4, 8 h
[13] = Stability of the compound assessed as parent compound remaining in PBS buffer at pH 7.4 at 10 uM measured after 8 hr in presence of glutathione by RP-HPLC analysis; type: physicochemical; details: PBS buffer with glutathione, read-out: Stability
[14] = Stability of the compound assessed as parent compound remaining in PBS buffer at pH 7.4 at 10 uM measured after 1 hr in presence of glutathione by RP-HPLC analysis; type: physicochemical; details: PBS buffer with glutathione, read-out: Stability

T2 sequence (P25106 whole entry): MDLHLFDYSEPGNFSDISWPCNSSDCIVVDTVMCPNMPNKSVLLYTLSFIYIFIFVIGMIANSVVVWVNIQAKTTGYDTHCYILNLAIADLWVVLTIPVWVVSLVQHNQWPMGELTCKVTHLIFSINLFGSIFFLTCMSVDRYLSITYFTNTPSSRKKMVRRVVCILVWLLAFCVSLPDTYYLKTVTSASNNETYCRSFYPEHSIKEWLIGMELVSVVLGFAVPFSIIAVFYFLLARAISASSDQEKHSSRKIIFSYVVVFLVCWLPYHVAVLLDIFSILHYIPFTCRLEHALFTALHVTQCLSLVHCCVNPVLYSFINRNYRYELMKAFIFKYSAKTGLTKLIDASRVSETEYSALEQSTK
T1 sequence (P61073 whole entry): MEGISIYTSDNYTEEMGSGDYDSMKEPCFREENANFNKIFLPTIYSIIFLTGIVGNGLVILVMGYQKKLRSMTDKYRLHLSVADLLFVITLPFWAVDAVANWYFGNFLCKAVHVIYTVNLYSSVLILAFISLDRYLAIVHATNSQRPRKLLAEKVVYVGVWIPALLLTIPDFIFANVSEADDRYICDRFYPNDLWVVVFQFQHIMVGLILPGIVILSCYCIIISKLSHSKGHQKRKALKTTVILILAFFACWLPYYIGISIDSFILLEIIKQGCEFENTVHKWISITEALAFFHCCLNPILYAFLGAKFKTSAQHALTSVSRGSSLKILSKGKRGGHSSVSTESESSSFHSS

Compound: CC(=O)N[C@@H](CCCNC(=N)N)C(=O)N[C@@H](C)C(=O)N[C@@H]1CNC(=O)[C@H](CCC(N)=O)NC(=O)[C@H](Cc2c[nH]cn2)NC(=O)[C@H](Cc2ccc3ccccc3c2)NC(=O)[C@H](CCCNC(=N)N)NC1=O
IC50 ([1]; ccrf-cem): 243 nM

Compound: CC(=O)N[C@@H](CCCNC(=N)N)C(=O)N[C@@H](C)C(=O)N[C@@H]1CNC(=O)[C@H](CCC(=O)O)NC(=O)[C@H](Cc2c[nH]cn2)NC(=O)[C@H](Cc2ccc3ccccc3c2)NC(=O)[C@H](CCCNC(=N)N)NC1=O
IC50 [1]: > 10000 nM

Compound: CC(=O)N[C@@H](CCCNC(=N)N)C(=O)N[C@@H](C)C(=O)N[C@@H]1CNC(=O)[C@H](Cc2ccccc2)NC(=O)[C@H](Cc2c[nH]cn2)NC(=O)[C@H](Cc2ccc3ccccc3c2)NC(=O)[C@H](CCCNC(=N)N)NC1=O
IC50 ([1]; ccrf-cem): 344 nM

Compound: CC(=O)N[C@@H](CCCNC(=N)N)C(=O)N[C@@H](C)C(=O)N[C@@H]1CNC(=O)[C@H](CCC(C)C)NC(=O)[C@H](Cc2c[nH]cn2)NC(=O)[C@H](Cc2ccc3ccccc3c2)NC(=O)[C@H](CCCNC(=N)N)NC1=O
IC50 ([1]; ccrf-cem): 113 nM

Compound: CC(=O)N[C@@H](CCCNC(=N)N)C(=O)N[C@@H](C)C(=O)N[C@@H]1CCCNC(=O)[C@H](CC(=O)O)NC(=O)[C@H](Cc2c[nH]cn2)NC(=O)[C@H](Cc2ccc3ccccc3c2)NC(=O)[C@H](CCCNC(=N)N)NC1=O
IC50 ([1]; ccrf-cem): 960 nM

Compound: CC(=O)N[C@@H](CCCNC(=N)N)C(=O)N[C@@H](C)C(=O)N[C@H]1CNC(=O)[C@@H](CCC(=O)O)NC(=O)[C@H](Cc2c[nH]cn2)NC(=O)[C@H](Cc2ccc3ccccc3c2)NC(=O)[C@H](CCCNC(=N)N)NC1=O
IC50 [1]: 50 nM | inhibition (CCRF-CEM [7]): Dose-Dependent Effect | Activity [3]: inactive | IC50 [8]: 48 nM | Activity [9]: inactive | Activity [4]: inactive | inhibition [10]: 37% | IC50 [11]: > 10000 nM | Stability [12]: Stable

Compound: CC(=O)N[C@@H](CCCNC(=N)N)C(=O)N[C@@H](C)C(=O)N[C@@H]1CCNC(=O)[C@H](CCC(=O)O)NC(=O)[C@H](Cc2c[nH]cn2)NC(=O)[C@H](Cc2ccc3ccccc3c2)NC(=O)[C@H](CCCNC(=N)N)NC1=O
IC50 ([1]; ccrf-cem): 780 nM

Compound: CC(=O)N[C@@H](CCCNC(=N)N)C(=O)N[C@@H](C)C(=O)N[C@@H]1CSSC(C)(C)[C@@H](C(=O)O)NC(=O)[C@H](Cc2cnc[nH]2)NC(=O)[C@H](Cc2ccc3ccccc3c2)NC(=O)[C@H](CCCNC(=N)N)NC1=O
IC50 [1]: 1 nM | remaining at 8 h, 10 µM [13]: ~52% | IC50 [8]: 4.7 nM | remaining at 1 h, 10 µM [14]: ~88%

Compound: CC(=O)N[C@@H](CCCNC(=N)N)C(=O)N[C@@H](C)C(=O)N[C@@H]1CCCCNC(=O)[C@H](CCC(=O)O)NC(=O)[C@H](Cc2c[nH]cn2)NC(=O)[C@H](Cc2ccc3ccccc3c2)NC(=O)[C@H](CCCNC(=N)N)NC1=O
IC50 ([1]; ccrf-cem): > 10000 nM

Compound: CC(=O)N[C@@H](CCCNC(=N)N)C(=O)N[C@@H](C)C(=O)N[C@@H]1CCCNC(=O)[C@H](CCC(=O)O)NC(=O)[C@H](Cc2c[nH]cn2)NC(=O)[C@H](Cc2ccc3ccccc3c2)NC(=O)[C@H](CCCNC(=N)N)NC1=O
IC50 ([1]; ccrf-cem): > 10000 nM

Compound: CC(=O)N[C@@H](CCCNC(=N)N)C(=O)N[C@@H](C)C(=O)N[C@@H]1CCCCNC(=O)[C@H](CC(=O)O)NC(=O)[C@H](Cc2c[nH]cn2)NC(=O)[C@H](Cc2ccc3ccccc3c2)NC(=O)[C@H](CCCNC(=N)N)NC1=O
IC50 ([1]; ccrf-cem): 1710 nM

The next lines start with results.

IC50 ([1]; ccrf-cem): 200 nM
Compound: CC(=O)N[C@@H](CCCNC(=N)N)C(=O)N[C@@H](C)C(=O)N[C@@H]1CCNC(=O)[C@H](CC(=O)O)NC(=O)[C@H](Cc2c[nH]cn2)NC(=O)[C@H](Cc2ccc3ccccc3c2)NC(=O)[C@H](CCCNC(=N)N)NC1=O

Activity [2]: Active | Activity [3]: inactive | Activity [4]: inactive | Activity [6]: inactive
Compound: CC(=O)N[C@@H](CCCNC(=N)N)C(=O)N[C@@H](C)C(=O)N[C@@H]1CSSC(C)(C)[C@H](C(=O)O)NC(=O)[C@H](Cc2c[nH]cn2)NC(=O)[C@H](Cc2ccc3ccccc3c2)NC(=O)[C@H](CCCNC(=N)N)NC1=O
inhibition (CCRF-CEM [5]): Active

IC50 [1]: 187 nM
Compound: CC(=O)N[C@@H](CCCNC(=N)N)C(=O)N[C@@H](C)C(=O)N[C@H]1CNC(=O)[C@@H](CC(=O)O)NC(=O)[C@H](Cc2c[nH]cn2)NC(=O)[C@H](Cc2ccc3ccccc3c2)NC(=O)[C@H](CCCNC(=N)N)NC1=O

IC50 ([8]; ccrf-cem): 36 nM
Compound: CC(=O)N[C@@H](CCCNC(=N)N)C(=O)N[C@@H](C)C(=O)N[C@@H]1Cn2cc(nn2)C[C@@H](C(=O)O)NC(=O)[C@H](Cc2c[nH]cn2)NC(=O)[C@H](Cc2ccc3ccccc3c2)NC(=O)[C@H](CCCNC(=N)N)NC1=O

IC50 [1]: 100 nM
Compound: CC(=O)N[C@@H](CCCNC(=N)N)C(=O)N[C@@H](C)C(=O)N[C@@H]1CNC(=O)[C@@H](CC(=O)O)NC(=O)[C@H](Cc2c[nH]cn2)NC(=O)[C@H](Cc2ccc3ccccc3c2)NC(=O)[C@H](CCCNC(=N)N)NC1=O

IC50 ([8]; ccrf-cem): 30 nM
Compound: CC(=O)N[C@@H](CCCNC(=N)N)C(=O)N[C@@H](C)C(=O)N[C@@H]1CCn2nncc2C[C@@H](C(=O)O)NC(=O)[C@H](Cc2c[nH]cn2)NC(=O)[C@H](Cc2ccc3ccccc3c2)NC(=O)[C@H](CCCNC(=N)N)NC1=O
